Measured values from PubChem BioAssay (NCI).
Where “and” joins values, the source holds several entries; their conditions need not be identical. Equal entries are not always repeated.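 Protocol summary: plate cells (96-well), add compound at 5 concentrations, incubate 48 h, interpolate endpoints linearly. At the GI50, growth is halved. TGI marks complete inhibition of growth.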

Experiments:
Experiment in all cases: inhibition of tumour cell growth, NCI panel, 48 h
SNB-78 CNS = system: SNB-78 CNS
LOX IMVI melanoma = system: LOX IMVI melanoma
OVCAR-8 ovarian = system: OVCAR-8 ovarian
SF-295 CNS = system: SF-295 CNS
DMS 114 small cell lung = system: DMS 114 small cell lung
786-0 renal = system: 786-0 renal
T-47D breast = system: T-47D breast
MDA-N = system: MDA-N
DU-145 prostate = system: DU-145 prostate
BT-549 breast = system: BT-549 breast
MCF7 breast = system: MCF7 breast

SMILES | TGI (SNB-78 CNS) [µM] | TGI (LOX IMVI melanoma) | TGI (OVCAR-8 ovarian) [µM] | TGI (SF-295 CNS) [µM] | TGI (DMS 114 small cell lung) [µM] | TGI (786-0 renal) [µM] | TGI (T-47D breast) [µM] | TGI (MDA-N) [µM] | TGI (DU-145 prostate) [µM] | TGI (BT-549 breast) [µM] | TGI (MCF7 breast) [µM] | GI50 (DU-145 prostate) | GI50 (MCF7 breast) [nM] | GI50 (T-47D breast) | GI50 (SNB-78 CNS) [nM] | GI50 (SF-295 CNS) | GI50 (OVCAR-8 ovarian) [nM]
COc1cc(C2C(=O)C(Cl)N2Nc2nc(C)cc(=O)[nH]2)cc(OC)c1OC (centres undefined) | 65.8 | 27.5 µM | > 100 | – | – | – | – | – | – | – | – | – | – | – | – | – | –
CCCCCCCCCCCCCCCCCC(=O)OCC1OC(OC)C(NC(=O)N(CCCl)N=O)C(O)C1O (centres undefined) | > 100 | 31.8 µM | > 100 | 32.6 | – | – | – | – | – | – | – | – | – | – | – | – | –
COc1cccc(NC(=O)CC(=O)NN2C(=O)/C(=C/c3ccc(N(CCC#N)CCC#N)cc3)N=C2c2cc([N+](=O)[O-])ccc2Cl)c1 | > 100 | > 100 µM | > 100 | > 100 | > 100 | – | – | – | – | – | – | – | – | – | – | – | –
O=C1CS(=O)(=O)C(c2cccc(Oc3ccccc3)c2)N1C1CC1 (centres undefined) | – | > 100 µM | > 100 | > 100 | – | > 100 | > 100 | 80.1 | > 100 | > 100 | 58 | – | – | – | – | – | –
O=S(=O)(O)c1ccc2c(N=Nc3ccccc3)c(O)ccc2c1 | – | > 100 µM | > 100 | > 100 | – | > 100 | > 100 | > 100 | > 100 | > 100 | > 100 | – | – | – | – | – | –
C/C(=C\C(=N\NC(=N)N)c1ccccc1)c1ccccc1 | – | 2.56 µM | 4.83 | 1.87 | – | 11.3 | 2.81 | 2.7 | 9.49 | – | 1.58 | – | – | – | – | – | –
Cn1c(=O)ccc2c(=O)c3ccccc3oc21 | – | > 100 µM | > 100 | > 100 | – | – | > 100 | > 100 | > 100 | – | – | – | – | – | – | – | –
Cc1cc(=O)n2c3c(c4c(cc13)c(CN(C)C)cc(=O)n4C)OC2 | – | > 100 µM | > 66.6 | > 72.7 | – | > 100 | > 100 | > 87.7 | > 75.9 | 83.8 | > 60.5 | – | – | – | – | – | –
C=C1CC2C3C=C(C)C4=CC(=O)CC[C@]4(C)C3CC[C@]2(C)[C@@]1(OC(C)=O)C(C)=O (some centres undefined) | – | – | – | – | – | – | – | – | > 100 | – | > 100 | > 100000 nM | 4160 | – | – | – | –
COP(=O)(OC)[C@H](O)[C@H]1C[C@@H]1c1ccccc1 | – | > 100 µM | > 100 | > 100 | – | – | > 100 | – | > 100 | > 100 | > 100 | – | – | – | – | – | –
CCCC[C@H]1C(=O)O[C@H](C)[C@H](NC(=O)c2cccc(NC=O)c2OC)C(=O)O[C@@H](C)[C@@H]1OC(=O)CC(C)C (tested in a mixture with another compound) | – | 23.2 µM | 34.7 | 30.3 | – | 29.3 | 44.5 | 50.3 | 55.7 | 40.1 | 28.1 | – | – | – | – | – | –
O=CN1CCC23CC(O)CCC2C1Cc1cc(Oc2nnnn2-c2ccccc2)cc(O)c13 (centres undefined) | – | > 100 µM | > 100 | > 100 | – | > 100 | > 100 | > 100 | > 100 | > 100 | > 100 | – | – | – | – | – | –
CN1NC(c2ccccc2)=C(C#N)C(=O)CC1c1ccc(F)cc1 (centres undefined) | > 100 | > 100 µM | – | > 100 | > 100 | – | – | – | – | – | – | – | – | – | – | – | –
O=c1[nH]c2cc([N+](=O)[O-])c(N/N=C/c3ccc(Cl)cc3Cl)c([N+](=O)[O-])c2[nH]1 | – | > 100 µM | > 100 | > 100 | – | > 100 | > 100 | > 100 | > 100 | > 100 | > 100 | – | – | – | – | – | –
COc1ccc(N=Nc2c(N)nn(C)c2N)cc1 | > 100 | > 100 µM | > 100 | > 100 | > 100 | > 100 | – | – | – | – | – | – | – | – | – | – | –
CCOC(=O)C12CC(C)=C(C)CC1CCCc1ccccc12 (centres undefined) | – | 30.8 µM | > 100 | 86.3 | – | > 100 | 55.5 | 86.6 | > 100 | > 100 | 35.2 | – | – | – | – | – | –
O=c1[nH]c(=O)n(CCOCP(=O)(O)O)nc1Br | – | > 100 µM | > 100 | – | – | – | > 100 | > 100 | > 100 | > 100 | > 100 | – | – | – | – | – | –
Cn1cc(-c2nnc(-c3ccc(Cl)cc3)[nH]c2=O)c2ccccc21 | – | > 100 µM | > 100 | > 28.3 | – | > 44.6 | > 100 | 1.83 | > 51.8 | > 100 | > 39.6 | – | – | – | – | – | –
C[C@H]1CCC/C=C/[C@@H]2C[C@H](O)C[C@H]2[C@H](O)/C=C/C(=O)O1 | > 100 | 0.0412 µM and 0.0275 µM | – | – | – | – | – | – | – | – | – | 78.5 nM and 218 nM and 248 nM | 41.7 | 80.9 nM and 619 nM | 32.4 | < 18.1 nM and 52.4 nM and 120 nM | 43
